Laboratory results reported in the NIST ThermoML archive (doi:10.1016/j.tca.2011.10.009).

Key:
[1] = Liquid; for mass density: Vibrating tube method
[2] = mn = molality of the nth substance listed, in mol/kg; settings: 101 kPa, Liquid; for viscosity: Capillary tube (Ostwald / Ubbelohde) method; for mass density: Vibrating tube method
[3] = refractive index (Na D-line) (dimensionless); mn = molality of the nth substance listed, in mol/kg; settings: 298.15 K, 101 kPa, Liquid, Standard Abbe refractometry

CCCCCCn1cc[n+](C)c1.[Br-] [3-hexyl-1-methyl-1H-imidazolium bromide]
Settings	mass density [kg/m3]
[1], 298.15 K, 101.33 kPa	1222.1

CCCCCCn1cc[n+](C)c1.[Br-] [3-hexyl-1-methyl-1H-imidazolium bromide] + CN(C)C=O
[2]
Settings	mass density, 298.15 K [kg/m3]	mass density, 303.15 K [kg/m3]	mass density, 308.15 K [kg/m3]	mass density, 313.15 K [kg/m3]	viscosity, 298.15 K [mPa·s]
m1 = 2.17e-05	–	–	–	–	0.897
m1 = 4.17e-05	–	–	–	–	0.913
m1 = 6.26e-05	–	–	–	–	0.929
m1 = 7.78e-05	–	–	–	–	0.938
m1 = 9.98e-05	–	–	–	–	0.952
m1 = 0.0001171	–	–	–	–	0.969
m1 = 0.0001363	–	–	–	–	0.985
m1 = 0.0001507	–	–	–	–	0.997
m1 = 0.0001787	–	–	–	–	1.014
m1 = 0.0001961	–	–	–	–	1.022
m1 = 0.0233	945.6	942.35	937.3	932.21	–
m1 = 0.0435	946.89	943.65	938.59	933.56	–
m1 = 0.0658	948.29	945.07	939.99	935.02	–
m1 = 0.0824	949.31	946.1	941.01	936.08	–
m1 = 0.1049	950.67	947.48	942.38	937.52	–
m1 = 0.1228	951.73	948.58	943.44	938.65	–
m1 = 0.1428	952.91	949.77	944.62	939.88	–
m1 = 0.1583	953.83	950.67	945.53	940.81	–
m1 = 0.1869	955.45	952.33	947.16	942.51	–
m1 = 0.2051	956.47	953.36	948.17	943.57	–

[3]
Settings	refractive index
m1 = 0.0233	1.4303
m1 = 0.0435	1.4306
m1 = 0.0658	1.4311
m1 = 0.0824	1.4316
m1 = 0.1049	1.432
m1 = 0.1228	1.4325
m1 = 0.1428	1.433
m1 = 0.1583	1.4336
m1 = 0.1869	1.4344
m1 = 0.2051	1.4347

C(=NCCN=Cc1ccccn1)c1ccccn1 [N,N'-bis(2-pyridinylmethylene)-1,2-ethanediamine] + CN(C)C=O
[2]
Settings	mass density, 298.15 K [kg/m3]	mass density, 303.15 K [kg/m3]	mass density, 308.15 K [kg/m3]	mass density, 313.15 K [kg/m3]	viscosity, 298.15 K [mPa·s]
m1 = 0.0402	945.46	941.5	936.79	931.89	0.878
m1 = 0.0764	946.76	942.72	937.92	933.39	0.893
m1 = 0.1208	948.07	943.95	939.19	934.92	0.909
m1 = 0.1644	949.29	944.72	940.14	936.16	0.926

CN(C)C=O [dimethylformamide]
Settings	viscosity [mPa·s]
[1], 298.15 K, 101 kPa, Capillary tube (Ostwald / Ubbelohde) method	0.861

[1], 101 kPa
Settings	mass density [kg/m3]
298.15 K	944.09
303.15 K	940.82
308.15 K	935.79
313.15 K	930.63
